In the experiment the test system is ovulation in female rats. Briefly: Anti-ovulatory test in proestrous female rats. Format: in vivo, Sprague-Dawley rats. The protocol:
In vivo tests were conducted with female rats (225 to 250 grams body weight). […] The test was conducted with mature Sprague-Dawley rats, unanesthetized, proestrous rats. On the afternoon of proestrous, each rat in the test group received six subcutaneous injections of the acetate salt of formula I in corn oil, each injection being given a half hour following the previous injection. The rats are sacrificed the next morning and the number of animals ovulating and the number of ova shed are recorded following the procedure described by E. S. France, Neuroendocrinology 6, pp 77-89 (1970). The absence of or a significant decrease in the number of ova is the criterion for an anti-ovulation effect.

For 1 compound, Inhibition of ovulation and Ovulation inhibition results are on record in US3937695A, “P-Glu-Trp-Ser-Tyr-D-Lys-Leu-Arg-Pro-Gly-NH2 and intermediates” (American Home Products Corporation, priority 1974, dated 1976).

Where a SMILES comes first, the peptide text is derived from it. [ ]: non-standard residue; d: D form. pGlu = O=C1CC[C@@H](C(=O)O)N1

In the case of `CC(C)C[C@H](NC(=O)[C@@H](CCCCN)NC(=O)[C@H](Cc1ccc(O)cc1)NC(=O)[C@H](CO)NC(=O)[C@H](Cc1c[nH]c2ccccc12)NC(=O)[C@@H]1CCC(=O)N1)C(=O)N[C@@H](CCCNC(=N)N)C(=O)N1CCC[C@H]1C(=O)NCC(N)=O` [Example 3, L-Pyroglutamyl-L-tryptophyl-L-seryl-L-tyrosyl-D-lysyl-L-leucyl-L-arginyl-L- prolyl-glycinamide] ([pGlu]WSY[dK]LRPG-NH2), the Inhibition of ovulation result (1 mg per injection, six subcutaneous injections in corn oil, half an hour apart, on the afternoon of proestrous, rats sacrificed next morning) was “complete inhibition of ovulation”. Also, the Ovulation inhibition entry (mature unanesthetized proestrous female Sprague-Dawley rats (225 to 250 g), dose of about 24 mg/kg, subcutaneous in corn oil) is reported as “all of the rats tested”.
